In patent publication US20210355104A1, “ADENOSINE RECEPTOR BINDING COMPOUNDS” (Nikang Therapeuticsm Inc., priority 2018, published 2021) one finds IC50 data, which are given here for 27 molecules.

The structures appear in SMILES notation. Values joined by “and” are separate entries in the source; they are usually repeats but may differ in a detail not shown here. Equal values may be shown once.

One experiment deals with Adenosine A2A receptor (Homo sapiens, UniProt P29274). The experiment can be described thus: cAMP assay in 293A cells stably expressing the adenosine A2A receptor (CGS21680 stimulation, HTRF). The experiment is classed as cell-based. Also noted: expressed in transfected cells; host or cells: 293A cells (Invitrogen, Cat# R705-07) infected with A2A-expressing lentivirus (custom packaged by Biosettia), puromycin selected. The following applies: 293A cells stably expressing A2A receptor; 0.1% BSA; 1 uM CGS21680 stimulation; replicate values separated by /; read-out: cAMP (nM) 0.1% BSA, 1 uM CGS. Background: Changes in cAMP serve as a functional read-out for many G protein-coupled receptors.
Sequence of Adenosine A2A receptor (P29274 whole entry): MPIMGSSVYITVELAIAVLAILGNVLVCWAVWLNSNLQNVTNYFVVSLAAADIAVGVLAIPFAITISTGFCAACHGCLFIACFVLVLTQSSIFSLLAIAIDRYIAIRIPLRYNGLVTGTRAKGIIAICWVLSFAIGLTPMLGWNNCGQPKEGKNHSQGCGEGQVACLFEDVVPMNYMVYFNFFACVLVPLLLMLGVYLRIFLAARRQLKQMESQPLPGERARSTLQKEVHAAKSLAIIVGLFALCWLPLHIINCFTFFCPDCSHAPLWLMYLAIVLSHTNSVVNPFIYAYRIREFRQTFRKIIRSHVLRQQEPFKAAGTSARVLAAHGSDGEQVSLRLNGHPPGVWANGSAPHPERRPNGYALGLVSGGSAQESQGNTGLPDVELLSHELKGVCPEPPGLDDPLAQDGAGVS
For the molecule `Cc1cc(-c2c(OCc3nc(OCC(=O)O)cc4ccccc34)nc(N)nc2-c2ccc(F)cc2)cc(C(F)F)n1` [Example 405, 2-((1-(((2-amino-5-(2-(difluoromethyl)-6-methylpyridin-4-yl)-6-(4-fluorophenyl)pyrimidin-4-yl)oxy)methyl)isoquinolin-3-yl)oxy)acetic acid], the IC50 is 619 nM.

Consider `Cc1cc(-c2c(OCc3nc(C(C)(C)O)cc4ccccc34)nc(N)nc2-c2ccc(F)cc2)cc(C(F)F)n1` [Example 404, 2-(1-(((2-amino-5-(2-(difluoromethyl)-6-methylpyridin-4-yl)-6-(4-fluorophenyl)pyrimidin-4-yl)oxy)methyl)isoquinolin-3-yl)propan-2-ol], for which the IC50 was 1370 nM and 1800 nM.

Turning to `Cc1cc(-c2c(COc3cccc(C(C)C)n3)nc(N)nc2-c2ccc(F)cc2)cc(C(F)F)n1` [Example 397, 5-(2-(difluoromethyl)-6-methylpyridin-4-yl)-4-(4-fluorophenyl)-6-(((6-isopropylpyridin-2-yl)oxy)methyl)pyrimidin-2-amine], the IC50 is 9.4 nM and 32 nM and 26 nM and 17 nM.

For the molecule `Cc1cc(-c2c(OCc3nc(C(C)(C)O)ccc3C(C)(C)O)nc(N)nc2-c2ccc(F)cc2)cc(C(F)F)n1` [Example 438, 2,2-(6-(((2-amino-5-(2-(difluoromethyl)-6-methylpyridin-4-yl)-6-(4-fluorophenyl)pyrimidin-4-yl)oxy)methyl)pyridine-2,5-diyl)bis(propan-2-ol)], the IC50 came out at 3180 nM.

Consider `Cc1cc(-c2c(OCc3cccc(CN(CC(=O)N(C)C)CC(=O)N(C)C)n3)nc(N)nc2-c2ccc(F)cc2)cc(C(F)F)n1` [Example 436, 2,2′-(((6-(((2-amino-5-(2-(difluoromethyl)-6-methylpyridin-4-yl)-6-(4-fluorophenyl)pyrimidin-4-yl)oxy)methyl)pyridin-2-yl)methyl)azanediyl)bis(N, N-dimethylacetamide)], for which the IC50 was 894 nM and 530 nM.

On to `Cc1cc(-c2c(OCc3cccc(CNCC(=O)O)n3)nc(N)nc2-c2ccc(F)cc2)cc(C(F)F)n1` [Example 414, ((6-(((2-amino-5-(2-(difluoromethyl)-6-methylpyridin-4-yl)-6-(4-fluorophenyl)pyrimidin-4-yl)oxy)methyl)pyridin-2-yl)methyl)glycine], for which the IC50 turned out to be 2050 nM.

Still in this experiment, the particulars now being: 293A-A2AR cells, 0.1% BSA, 1 uM CGS; read-out: cAMP (nM) 0.1% BSA, 1 uM CGS.
`Cc1cc(-c2c(OCc3cnccn3)nc(N)nc2-c2ccc(F)cc2)cc(C(F)F)n1` [Example 273, 5-(2-(difluoromethyl)-6-methylpyridin-4-yl)-4-(4-fluorophenyl)-6-(pyrazin-2-ylmethoxy)pyrimidin-2-amine]: the IC50 was found to be 1660 nM.

In the case of `CCn1c(COc2nc(N)nc(-c3ccc(F)cc3)c2-c2cc(C)nc(C(F)F)c2)n[nH]c1=O` [Example 340, 5-(((2-amino-5-(2-(difluoromethyl)-6-methylpyridin-4-yl)-6-(4-fluorophenyl)pyrimidin-4-yl)oxy)methyl)-4-ethyl-2,4-dihydro-3H-1,2,4-triazol-3-one], the IC50 was determined as 4080 nM.

Turning to `Cc1cc(-c2c(OCc3nncn3CC3CC3)nc(N)nc2-c2ccc(F)cc2)cc(C(F)F)n1` [Example 234], the IC50 is 647 nM.

For the molecule `Cc1cc(-c2c(NCc3nc4ccccc4n3C)nc(N)nc2-c2ccc(F)cc2)cc(C(F)F)n1` [Example 351, 5-(2-(difluoromethyl)-6-methylpyridin-4-yl)-6-(4-fluorophenyl)-N^4-((1-methyl-1H-benzo[d]imidazol-2-yl)methyl)pyrimidine-2,4-diamine], the IC50 was 13100 nM.

Regarding `CCn1c(COc2nc(N)nc(-c3ccc(F)cc3)c2-c2cc(C)nc(C(F)F)c2)nc2cccc(C(=O)O)c21` [Example 344, 2-(((2-amino-5-(2-(difluoromethyl)-6-methylpyridin-4-yl)-6-(4-fluorophenyl)pyrimidin-4-yl)oxy)methyl)-1-ethyl-1H-benzo[d]imidazole-7-carboxylic acid], the IC50 is > 25000 nM.

`Cc1cc(-c2c(OCc3ccnc(C(C)(C)O)n3)nc(N)nc2-c2ccc(F)cc2)cc(C(F)F)n1` [Example 308]: the IC50 is 164 nM and 197 nM and 159 nM and 113 nM.

For `Cc1cc(-c2c(OCc3cccc(C(C)(C)C(=O)O)c3)nc(N)nc2-c2ccc(F)cc2)cc(C(F)F)n1` [Example 363, 2-(3-(((2-amino-5-(2-(difluoromethyl)-6-methylpyridin-4-yl)-6-(4-fluorophenyl)pyrimidin-4-yl)oxy)methyl)phenyl)-2-methylpropanoic acid], the IC50 worked out at 4800 nM.

With `CCc1c(COc2nc(N)nc(-c3ccc(F)cc3)c2-c2cc(C)nc(C(F)F)c2)nnn1CC(C)(C)O` [Example 252, 1-(4-(((2-ainino-5-(2-(difluoromethyl)-6-methylpyridin-4-yl)-6-(4-fluorophenyl)pyrimidin-4-yl)oxy)methyl)-5-ethyl-1H-1,2,3-triazol-1-yl)-2-methylpropan-2-ol], the IC50 stood at 1260 nM.

`Cc1cc(-c2c(OCc3nccn3CCCC(=O)O)nc(N)nc2-c2ccc(F)cc2)cc(C(F)F)n1` [Example 386, 4-(2-(((2-amino-5-(2-(difluoromethyl)-6-methylpyridin-4-yl)-6-(4-fluorophenyl)pyrimidin-4-yl)oxy)methyl)-1H-imidazol-1-yl)butanoic acid]: the IC50 is 3820 nM.

For `Cc1cc(-c2c(OCc3ncc(C(C)(C)O)n3C)nc(N)nc2-c2ccc(F)cc2)cc(C(F)F)n1` [Example 378, 2-(2-(((2-amino-5-(2-(difluoromethyl)-6-methylpyridin-4-yl)-6-(4-fluorophenyl)pyrimidin-4-yl)oxy)methyl)-1-methyl-1H-imidazol-5-yl)propan-2-ol], the IC50 is 430 nM and 173 nM and 247 nM.

For the molecule `Cc1cc(-c2c(OCc3nnn(CC(C)(C)O)n3)nc(N)nc2-c2ccc(F)cc2)cc(C(F)F)n1` [Example 242, 1-(5-(((2-amino-5-(2-(difluoromethyl)-6-methylpyridin-4-yl)-6-(4-fluorophenyl)pyrimidin-4-yl)oxy)methyl)-2H-tetrazol-2-yl)-2-methylpropan-2-ol], the IC50 came out at 2020 nM.

In the case of `CCn1cnc(COc2nc(N)nc(-c3cccc(C#N)c3C)c2-c2cc(C)nc(C(F)F)c2)n1` [Example 239, 3-(2-amino-5-(2-(difluoromethyl)-6-methylpyridin-4-yl)-6-((1-ethyl-1H-1,2,4-triazol-3-yl)methoxy)pyrimidin-4-yl)-2-methylbenzonitrile], the IC50 worked out at 7920 nM.

On to `CCn1ccc(COc2nc(N)nc(-c3cccc(C#N)c3C)c2-c2cc(C)nc(C(F)F)c2)n1` [Example 244, 3-(2-amino-5-(2-(difluoromethyl)-6-methylpyridin-4-yl)-6-((1-ethyl-1H-pyrazol-3-yl)methoxy)pyrimidin-4-yl)-2-methylbenzonitrile], for which the IC50 was 756 nM.

On to `Cc1cc(-c2c(OCCN(C)c3cccc(OCC(=O)O)n3)nc(N)nc2-c2ccc(F)cc2)cc(C(F)F)n1` [Example 248, 2-((6-((2-((2-amino-5-(2-(difluoromethyl)-6-methylpyridin-4-yl)-6-(4-fluorophenyl)pyrimidin-4-yl)oxy)ethyl)(methyl)amino)pyridin-2-yl)oxy)acetic acid], for which the IC50 is 552 nM and 742 nM and 1100 nM.

`Cc1cc(-c2c(OCc3cc4ccccc4n3C)nc(N)nc2-c2ccc(F)cc2)cc(C(F)F)n1` [Example 319, 5-(2-(difluoromethyl)-6-methylpyridin-4-yl)-4-(4-fluorophenyl)-6-((1-methyl-1H-indol-2-yl)methoxy)pyrimidin-2-amine]: the IC50 is 209 nM and 256 nM.

Regarding `Cc1cc(-c2c(OCCN(C)c3nccc(C(C)(C)C#N)n3)nc(N)nc2-c2ccc(F)cc2)cc(C(F)F)n1` [Example 372, 2-(2-((2-((2-amino-5-(2-(difluoromethyl)-6-methylpyridin-4-yl)-6-(4-fluorophenyl)pyrimidin-4-yl)oxy)ethyl)(methyl)amino)pyrimidin-4-yl)-2-methylpropanenitrile], the IC50 was 128 nM and 130 nM and 160 nM.

Take `Cc1cc(-c2c(OCc3ccnc(C(C)(C)O)c3)nc(N)nc2-c2ccc(F)cc2)cc(C(F)F)n1` [Example 287, 2-(4-(((2-amino-5-(2-(difluoromethyl)-6-methylpyridin-4-yl)-6-(4-fluorophenyl)pyrimidin-4-yl)oxy)methyl)pyridin-2-yl)propan-2-ol]: the IC50 was 835 nM.

Turning to `Cc1cc(-c2c(OCc3cc4c(s3)CCCC4)nc(N)nc2-c2ccc(F)cc2)cc(C(F)F)n1` [Example 346, 5-(2-(difluoromethyl)-6-methylpyridin-4-yl)-4-(4-fluorophenyl)-6-((4,5,6,7-tetrahydrobenzo[b]thiophen-2-yl)methoxy)pyrimidin-2-amine], the IC50 was determined as 3990 nM.

On to `Cc1cc(-c2c(OCc3cccc(N4CC(C(=O)O)C4)n3)nc(N)nc2-c2ccc(F)cc2)cc(C(F)F)n1` [Example 293, 1-(6-(((2-amino-5-(2-(difluoromethyl)-6-methylpyridin-4-yl)-6-(4-fluorophenyl)pyrimidin-4-yl)oxy)methyl)pyridin-2-yl)azetidine-3-carboxylic acid], for which the IC50 amounted to 4350 nM.

For `Cc1cc(-c2c(OCc3cccc(OCCC(C)(C)C(=O)O)n3)nc(N)nc2-c2ccc(F)cc2)cc(C(F)F)n1` [Example 338, 4-((6-(((2-amino-5-(2-(difluoromethyl)-6-methylpyridin-4-yl)-6-(4-fluorophenyl)pyrimidin-4-yl)oxy)methyl)pyridin-2-yl)oxy)-2,2-dimethylbutanoic acid], the IC50 was found to be 2890 nM.

For the molecule `Cc1cc(-c2c(OCc3cn(C(C)(C)C(=O)O)cn3)nc(N)nc2-c2ccc(F)cc2)cc(C(F)F)n1` [Example 387, 2-(4-(((2-amino-5-(2-(difluoromethyl)-6-methylpyridin-4-yl)-6-(4-fluorophenyl)pyrimidin-4-yl)oxy)methyl)-1H-imidazol-1-yl)-2-methylpropanoic acid], the IC50 is 16300 nM.
